Results: patent publication US20250151724A1, “Liquid Soil Treatments Containing Choline” (Harrell's, LLC, priority 2023, published 2025)
Read-outs that look alike come from different tables or passages of the source.

Tested on: creeping bentgrass putting green
Protocol: The study was carried out on a creeping bentgrass putting green. There were two separate trials (Trial 1 and Trial 2). Trial 1 and Trial 2 were conducted side by side. Each trial consisted of 2 treatments with 4 replications. Plot size was 5×6 ft. Regular mowing and irrigation were performed. A randomized block design was used.
The treatments were as follows: • I. Choline Trial 1-Biweekly • 1. Fertilized Control • 2. Choline 0.5 oz./1,000 ft^2 every two weeks • II. Choline Trial 2-Monthly • 1. Fertilized Control • 2. Choline 0.5 oz./1,000 ft^2 every month
Between 0.125″ and 0.25″ of irrigation was applied 3-4 hours post application. All treatments received equal fertility (applied bi-weekly) with 28-8-18 with UMAXX® fertilizer (Harrell's, Lakeland, Florida) applied on the day following application of treatments.
The trials lasted for 15 weeks and a total of 7 treatment applications in the bi-weekly trial and 4 treatment applications in the monthly trial. The following measurements data were taken at the specified intervals throughout the trials: • a. Volumetric water content (VWC) was measured with a TDR350 moisture sensor (Turf-Tec Intentional, Tallahassee, FL) every 2 weeks. In addition, beginning on days 13, 34, and 69, irrigation was withheld for about 9 days to allow gradual decline of the soil water content, inducing significant decline in leaf color and turf quality. Volumetric water content was measured at day 0 (the day of initiation of irrigation withholding), day 3, day 6, and day 9. Irrigation was resumed after day 9 of the first and second dry down cycle. […] Three readings of VWC were collected from each plot and the average was used for statistical analysis. • b. Leaf color was rated based on a visual scale of 1 through 9, with 1 indicating brown color and 9 indicating dark green color. • c. Turf quality was rated based on a visual scale of 1 through 9, with 9 indicating the best quality and 6 indicating the minimum commercially acceptable quality.

[1] = 0.5 oz/1000 ft^2 biweekly, day 0
[2] = 0.5 oz/1000 ft^2 biweekly, day 14
[3] = 0.5 oz/1000 ft^2 biweekly, day 17
[4] = 0.5 oz/1000 ft^2 biweekly, day 20
[5] = 0.5 oz/1000 ft^2 biweekly, day 22
[6] = 0.5 oz/1000 ft^2 biweekly, day 29
[7] = 0.5 oz/1000 ft^2 biweekly, day 34
[8] = 0.5 oz/1000 ft^2 biweekly, day 38
[9] = 0.5 oz/1000 ft^2 biweekly, day 41
[10] = 0.5 oz/1000 ft^2 biweekly, day 43
[11] = 0.5 oz/1000 ft^2 biweekly, day 57
[12] = 0.5 oz/1000 ft^2 biweekly, day 71
[13] = 0.5 oz/1000 ft^2 biweekly, day 76
[14] = 0.5 oz/1000 ft^2 biweekly, day 78
[15] = 0.5 oz/1000 ft^2 biweekly, day 84
[16] = 0.5 oz/1000 ft^2 biweekly, day 98
[17] = 0.5 oz/1000 ft^2 monthly, day 0
[18] = 0.5 oz/1000 ft^2 monthly, day 14
[19] = 0.5 oz/1000 ft^2 monthly, day 17
[20] = 0.5 oz/1000 ft^2 monthly, day 20
[21] = 0.5 oz/1000 ft^2 monthly, day 22
[22] = 0.5 oz/1000 ft^2 monthly, day 29
[23] = 0.5 oz/1000 ft^2 monthly, day 34
[24] = 0.5 oz/1000 ft^2 monthly, day 38
[25] = 0.5 oz/1000 ft^2 monthly, day 41
[26] = 0.5 oz/1000 ft^2 monthly, day 43
[27] = 0.5 oz/1000 ft^2 monthly, day 57
[28] = 0.5 oz/1000 ft^2 monthly, day 71
[29] = 0.5 oz/1000 ft^2 monthly, day 76
[30] = 0.5 oz/1000 ft^2 monthly, day 78
[31] = 0.5 oz/1000 ft^2 monthly, day 84
[32] = 0.5 oz/1000 ft^2 monthly, day 98

**Q.** `C[N+](C)(C)CCO.[Cl-]` [Choline, choline chloride] was tested. Which “Leaf color (1-9, 9 = dark green)” value [1] did it give?
**A.** Its value is 7.0a.

**Q.** What about the “Turf quality (1-9, 9 = best)” value [1] of the same compound?
**A.** Its value is 6.9a.

**Q.** What about the “Leaf color (1-9, 9 = dark green)” value [2] of the same compound?
**A.** The value was 7.0a.

**Q.** And the “Turf quality (1-9, 9 = best)” value [2]?
**A.** The value was 7.1a.

**Q.** What about the “Leaf color (1-9, 9 = dark green)” value [3] of the same compound?
**A.** The value was 7.0a.

**Q.** And the “Turf quality (1-9, 9 = best)” value [3]?
**A.** The value was 7.0a.

**Q.** What about the “Leaf color (1-9, 9 = dark green)” value [4] of the same compound?
**A.** Its value is 7.0a.

**Q.** And the “Turf quality (1-9, 9 = best)” value [4]?
**A.** Its value is 7.0a.

**Q.** What about the “Leaf color (1-9, 9 = dark green)” value [5] of the same compound?
**A.** The value was 6.9a.

**Q.** And the “Turf quality (1-9, 9 = best)” value [5]?
**A.** Its value is 7.0a.

**Q.** What about the “Leaf color (1-9, 9 = dark green)” value [6] of the same compound?
**A.** The value was 7.0a.

**Q.** What about the “Turf quality (1-9, 9 = best)” value [6] of the same compound?
**A.** The value was 7.0a.

**Q.** And the “Leaf color (1-9, 9 = dark green)” value [7]?
**A.** Its value is 7.4a.

**Q.** And the “Turf quality (1-9, 9 = best)” value [7]?
**A.** The value was 6.9a.

**Q.** What about the “Leaf color (1-9, 9 = dark green)” value [8] of the same compound?
**A.** The value was 7.5a.

**Q.** What about the “Turf quality (1-9, 9 = best)” value [8] of the same compound?
**A.** The value was 7.1a.

**Q.** And the “Leaf color (1-9, 9 = dark green)” value [9]?
**A.** The value was 7.4a.

**Q.** And the “Turf quality (1-9, 9 = best)” value [9]?
**A.** Its value is 7.0a.

**Q.** What about the “Leaf color (1-9, 9 = dark green)” value [10] of the same compound?
**A.** Its value is 7.1a.

**Q.** And the “Turf quality (1-9, 9 = best)” value [10]?
**A.** Its value is 6.5a.

**Q.** What about the “Leaf color (1-9, 9 = dark green)” value [11] of the same compound?
**A.** The value was 6.5a.

**Q.** And the “Turf quality (1-9, 9 = best)” value [11]?
**A.** The value was 5.9a.

**Q.** And the “Leaf color (1-9, 9 = dark green)” value [12]?
**A.** Its value is 6.4a.

**Q.** And the “Turf quality (1-9, 9 = best)” value [12]?
**A.** The value was 6.1a.

**Q.** What about the “Leaf color (1-9, 9 = dark green)” value [13] of the same compound?
**A.** The value was 6.5a.

**Q.** And the “Turf quality (1-9, 9 = best)” value [13]?
**A.** Its value is 6.0a.

**Q.** And the “Leaf color (1-9, 9 = dark green)” value [14]?
**A.** Its value is 6.4a.

**Q.** What about the “Turf quality (1-9, 9 = best)” value [14] of the same compound?
**A.** Its value is 5.6a.

**Q.** And the “Leaf color (1-9, 9 = dark green)” value [15]?
**A.** Its value is 6.8a.

**Q.** And the “Turf quality (1-9, 9 = best)” value [15]?
**A.** Its value is 5.8a.

**Q.** What about the “Leaf color (1-9, 9 = dark green)” value [16] of the same compound?
**A.** The value was 7.0a.

**Q.** What about the “Turf quality (1-9, 9 = best)” value [16] of the same compound?
**A.** Its value is 6.1a.

**Q.** And the “Leaf color (1-9, 9 = dark green)” value [17]?
**A.** Its value is 7.0a.

**Q.** And the “Turf quality (1-9, 9 = best)” value [17]?
**A.** The value was 7.0a.

**Q.** What about the “Leaf color (1-9, 9 = dark green)” value [18] of the same compound?
**A.** The value was 6.9a.

**Q.** And the “Turf quality (1-9, 9 = best)” value [18]?
**A.** The value was 6.9a.

**Q.** What about the “Leaf color (1-9, 9 = dark green)” value [19] of the same compound?
**A.** Its value is 7.0a.

**Q.** What about the “Turf quality (1-9, 9 = best)” value [19] of the same compound?
**A.** Its value is 7.0a.

**Q.** What about the “Leaf color (1-9, 9 = dark green)” value [20] of the same compound?
**A.** The value was 7.0a.

**Q.** And the “Turf quality (1-9, 9 = best)” value [20]?
**A.** The value was 7.3a.

**Q.** And the “Leaf color (1-9, 9 = dark green)” value [21]?
**A.** Its value is 6.9a.

**Q.** What about the “Turf quality (1-9, 9 = best)” value [21] of the same compound?
**A.** Its value is 6.6a.

**Q.** What about the “Leaf color (1-9, 9 = dark green)” value [22] of the same compound?
**A.** Its value is 7.0a.

**Q.** What about the “Turf quality (1-9, 9 = best)” value [22] of the same compound?
**A.** The value was 6.6a.

**Q.** And the “Leaf color (1-9, 9 = dark green)” value [23]?
**A.** Its value is 7.5a.

**Q.** And the “Turf quality (1-9, 9 = best)” value [23]?
**A.** The value was 7.3a.

**Q.** And the “Leaf color (1-9, 9 = dark green)” value [24]?
**A.** The value was 7.1a.

**Q.** What about the “Turf quality (1-9, 9 = best)” value [24] of the same compound?
**A.** The value was 7.0a.

**Q.** And the “Leaf color (1-9, 9 = dark green)” value [25]?
**A.** The value was 7.5a.

**Q.** What about the “Turf quality (1-9, 9 = best)” value [25] of the same compound?
**A.** The value was 7.0a.

**Q.** What about the “Leaf color (1-9, 9 = dark green)” value [26] of the same compound?
**A.** Its value is 6.9a.

**Q.** And the “Turf quality (1-9, 9 = best)” value [26]?
**A.** Its value is 6.6a.

**Q.** What about the “Leaf color (1-9, 9 = dark green)” value [27] of the same compound?
**A.** Its value is 7.1a.

**Q.** And the “Turf quality (1-9, 9 = best)” value [27]?
**A.** The value was 6.8a.

**Q.** What about the “Leaf color (1-9, 9 = dark green)” value [28] of the same compound?
**A.** Its value is 6.9a.

**Q.** And the “Turf quality (1-9, 9 = best)” value [28]?
**A.** Its value is 6.8a.

**Q.** What about the “Leaf color (1-9, 9 = dark green)” value [29] of the same compound?
**A.** The value was 7.0a.

**Q.** What about the “Turf quality (1-9, 9 = best)” value [29] of the same compound?
**A.** The value was 6.6a.

**Q.** What about the “Leaf color (1-9, 9 = dark green)” value [30] of the same compound?
**A.** The value was 7.0a.

**Q.** And the “Turf quality (1-9, 9 = best)” value [30]?
**A.** The value was 6.5a.

**Q.** And the “Leaf color (1-9, 9 = dark green)” value [31]?
**A.** Its value is 7.3a.

**Q.** And the “Turf quality (1-9, 9 = best)” value [31]?
**A.** Its value is 7.0a.

**Q.** What about the “Leaf color (1-9, 9 = dark green)” value [32] of the same compound?
**A.** The value was 7.7a.

**Q.** And the “Turf quality (1-9, 9 = best)” value [32]?
**A.** Its value is 7.3a.
